Measured values reported in patent US20170334899A1, “AMINO-SUBSTITUTED ISOTHIAZOLES” (Bayer Pharma Aktiengesellschaft, priority 2014, published 2017).
Values joined by “and” are separate entries in the source; they are usually repeats but may differ in a detail not shown here. Equal values may be shown once.

The molecules below were run against T1, human kinase Mps-1 (Homo sapiens, UniProt P33981) (assay: Mps-1 kinase assay (TR-FRET)). Details: Mps-1 TR-FRET kinase assay; avg; read-out: Mps1 avg (IC50 [mol/l]).
T1 construct: N-terminally GST-tagged human full length recombinant Mps-1 kinase; GST (N); purchased Invitrogen, Karslruhe, Germany PV4071
T1 sequence (P33981 1-857): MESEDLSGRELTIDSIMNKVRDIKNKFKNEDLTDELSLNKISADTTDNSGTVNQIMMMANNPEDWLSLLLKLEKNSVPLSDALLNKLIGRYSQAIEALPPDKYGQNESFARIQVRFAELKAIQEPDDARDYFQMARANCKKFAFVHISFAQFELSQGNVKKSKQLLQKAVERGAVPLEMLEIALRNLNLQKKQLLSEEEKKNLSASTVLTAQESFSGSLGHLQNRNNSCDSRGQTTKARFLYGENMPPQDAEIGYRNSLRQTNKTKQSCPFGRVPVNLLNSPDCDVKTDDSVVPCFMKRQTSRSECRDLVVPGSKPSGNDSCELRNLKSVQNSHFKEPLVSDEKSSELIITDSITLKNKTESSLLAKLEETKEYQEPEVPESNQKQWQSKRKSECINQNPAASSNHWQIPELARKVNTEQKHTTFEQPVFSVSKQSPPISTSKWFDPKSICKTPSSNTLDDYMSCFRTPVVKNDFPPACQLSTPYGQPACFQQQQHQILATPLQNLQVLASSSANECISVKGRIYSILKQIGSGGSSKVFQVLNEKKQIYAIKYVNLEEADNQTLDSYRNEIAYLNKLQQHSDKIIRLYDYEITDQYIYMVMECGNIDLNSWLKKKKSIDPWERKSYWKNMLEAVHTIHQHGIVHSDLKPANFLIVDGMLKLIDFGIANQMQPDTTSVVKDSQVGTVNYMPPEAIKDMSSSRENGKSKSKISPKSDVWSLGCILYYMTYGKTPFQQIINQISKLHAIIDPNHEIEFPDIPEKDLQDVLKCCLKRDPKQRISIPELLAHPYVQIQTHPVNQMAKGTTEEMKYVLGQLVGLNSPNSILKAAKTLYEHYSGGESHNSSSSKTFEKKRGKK
Type: biochemical
In short: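 GST-tagged full-length recombinant human Mps-1 (~0.5 nM) pre-incubated 15 min with compound, then reacted 60 min at 22 °C with 10 μM ATP and 1 μM biotinylated peptide in Hepes pH 7.7 buffer. EDTA-stopped; TR-FRET (Eu anti-phospho-Ser/Thr to SA-XLent) 665/620 nm ratio normalised to no-inhibitor and no-enzyme controls.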

| SMILES | IC50 |
| --- | --- |
| Cc1nsc(Nc2ccc(C#N)cn2)c1C(=O)Nc1ccc(OC[C@H]2CCN(CC(F)(F)F)C2)nc1 [Example 405, 5-[(5-Cyanopyridin-2-yl)amino]-3-methyl-N-(6-{[(35)-1-(2,2,2-trifluoroethyl)pyrrolidin-3-yl]methoxy}pyridin-3-yl)-1,2-thiazole-4-carboxamide] | > 20 µM |
| CCN1CCC(Oc2ccc(NC(=O)c3c(C)nsc3Nc3cnc(C(F)(F)F)cn3)cn2)C(F)(F)C1 (centres unmarked) [Example 406, N-{6-[(1-Ethyl-3,3-difluoropiperidin-4-yl)oxy]pyridin-3-yl}-3-methyl-5-{[5-(trifluoromethyl)pyrazin-2-yl]amino}-1,2-thiazole-4-carboxamide] | > 20 µM |
| Cc1nsc(Nc2cnc(C(F)(F)F)cn2)c1C(=O)Nc1ccc(OCCN2CCC(F)(F)CC2)nc1 [Example 407, N-{6-[2-(4,4-Difluoropiperidin-1-yl)ethoxy]pyridin-3-yl}-3-methyl-5-{[5-(trifluoromethyl)pyrazin-2-yl]amino}-1,2-thiazole-4-carboxamide] | > 20 µM |
| CCN1CC[C@H](Oc2ccc(NC(=O)c3c(C)nsc3Nc3cnc(C(F)(F)F)cn3)cn2)[C@H](F)C1 [Example 424, N-(6-{[(3R,4S)-1-Ethyl-3-fluoropiperidin-4-yl]oxy}pyridin-3-yl)-3-methyl-5-{[5-(trifluoromethyl)pyrazin-2-yl]amino}-1,2-thiazole-4-carboxamide] | > 20 µM |
| Cc1nsc(Nc2cnc(C(F)(F)F)cn2)c1C(=O)Nc1ccc(OCCNC(=O)C(F)(F)F)nc1 [Example 425, 3-Methyl-N-(6-{2-[(trifluoroacetyl)amino]ethoxy}pyridin-3-yl)-5-{[5-(trifluoro-methyl)pyrazin-2-yl]amino}-1,2-thiazole-4-carboxamide] | ≥ 20 µM |
| Cc1nsc(Nc2cnc(C(F)(F)F)cn2)c1C(=O)Nc1ccc(F)c(OCCCNC(=O)C(F)(F)F)c1 [Example 427, N-(4-Fluoro-3-{3-[(trifluoroacetyl)amino]propoxy}phenyl)-3-methyl-5-{[5-(trifluoro-methyl)pyrazin-2-yl]amino}-1,2-thiazole-4-carboxamide] | ≥ 20 µM |
| Cc1nsc(Nc2cnc(C(F)(F)F)cn2)c1C(=O)Nc1ccc(OCCCNC(=O)C(F)(F)F)nc1 [Example 428, 3-Methyl-N-(6-{3-[(trifluoroacetyl)amino]propoxy}pyridin-3-yl)-5-{[5-(trifluoro-methyl)pyrazin-2-yl]amino}-1,2-thiazole-4-carboxamide] | > 20 µM |
| Cc1nsc(Nc2cnc(C(F)(F)F)cn2)c1C(=O)Nc1ccc(OCCN(C)C(=O)OC(C)(C)C)nc1 [Example 429, tert-Butyl methyl{2-[(5-{[(3-methyl-5-{[5-(trifluoromethyl)pyrazin-2-yl]amino}-1,2-thiazol-4-yl)carbonyl]amino}pyridin-2-yl)oxy]ethyl}carbannate] | > 20 µM |
| Cc1nsc(Nc2cncc(C(F)(F)F)n2)c1C(=O)Nc1ccc(OCCN(C)C(=O)OC(C)(C)C)nc1 [Example 430, tert-Butyl methyl{2-[(5-{[(3-methyl-5-{[6-(trifluoromethyl)pyrazin-2-yl]amino}-1,2-thiazol-4-yl)carbonyl]amino}pyridin-2-yl)oxy]ethyl}carbannate] | > 20 µM |
| Cc1nsc(Nc2cnc(C(F)(F)F)cn2)c1C(=O)Nc1ccc(OC2CCNCC2)c(F)c1 [Example 431, N-[3-Fluoro-4-(piperidin-4-yloxy)phenyl]-3-methyl-5-{[5-(trifluoromethyl)pyrazin-2-yl]amino}-1,2-thiazole-4-carboxamide] | > 20 µM |
| Cc1nsc(Nc2cnc3ccccc3n2)c1C(=O)Nc1cccc(NC(=O)C(F)(F)F)c1 [Example 432, 3-Methyl-5-(quinoxalin-2-ylamino)-N-{3-[(trifluoroacetyl)amino]phenyl}-1,2-thiazole-4-carboxamide] | > 20 µM |
| Cc1nsc(Nc2ccc(C#N)cn2)c1C(=O)Nc1ccc(Nc2ccc(F)c(F)c2)nc1 [Example 433, 5-[(5-Cyanopyridin-2-yl)amino]-N-{6-[(3,4-difluorophenyl)amino]pyridin-3-yl}-3-methyl-1,2-thiazole-4-carboxamide] | > 20 µM |
| Cc1nsc(Nc2cnc3ccccc3n2)c1C(=O)Nc1ccc(NCCN(C)C(=O)OC(C)(C)C)nc1 [Example 434, tert-Butyl methyl(2-{[5-({[3-methyl-5-(quinoxalin-2-ylamino)-1,2-thiazol-4-yl]carbonyl}amino)pyridin-2-yl]amino}ethyl)carbamate] | > 20 µM and 19 µM |
| CC(=O)Nc1ccc(NC(=O)c2c(C)nsc2Nc2ccc(C#N)cn2)cn1 [Example 435, N-(6-Acetamidopyridin-3-yl)-5-[(5-cyanopyridin-2-yl)amino]-3-methyl-1,2-thiazole-4-carboxamide] | > 20 µM |
